Each structure is given as a SMILES string. pIC50, pKd: −log10 of the molar value.

For data set [1], the system named is MCF-7, a breast cancer cell line. Nature of the data set: Impedance assay (xCELLigence, Cell Index), MCF-7. Conditions: for effect on cell impedance: MCF-7, 100 μM to 1.5 μM. It is filed as cell-based. As to the method:
(§1) PTA or Compound 10 were added ranging from 100 μM to 1.5 μM to the cells after […]. The apparent IC50 after 72 hours of drug treatment was calculated and is shown in the inset of each graph of the triplicate impedance measurement per concentration. The DMSO vehicle control is shown as dark red line.
(§2) MCF-7 cells were maintained in RPMI media supplemented with 10% fetal bovine serum. HepG2 cells were maintained in Dulbecco's modified Eagle medium (DMEM, Invitrogen) media supplemented with 10% fetal bovine serum and 1×MEM non-essential amino acids. For cytotoxicity experiments, cells were plated on T-75 flasks and grown until they reached at 70-80% confluency.
(§3) Cell proliferation was monitored in real-time cell electronic sensing (xCELLigence System, Acea Biosciences) through gold microelectrode arrays on the bottom of 96 E-Plates. 100 μl of corresponding culture media was added into each well of 96 E-Plates, which inserted into the station and background measurement was taken. Then, cells (5,000 cells/well in 100 μl) were seeded into 96 E-Plates containing 100 μl medium/well. After about 20 hours, 200 μl medium was discarded and replaced with 100 μl of fresh medium containing indicated amounts of compounds for each well. In the xCELLigence System the changes in cell number are detected as modifications in the measurement of electrical impedance and are represented as Cell Index (CI).
(§4) To define the range of metastasizing cancer cell lines susceptible to PTA derivatives of the present invention, we can use the HUVEC electrical-impedance assay. Invasive tumor cell lines are monitored through electric impedance measurements of human umbilical vein endothelial cells (HUVEC) monolayers in the presence of PTA derivatives. […] The invasion potential of the tumor cell is measured by the change in cell impedance as the HUVEC monolayer junctions are compromised by the invading tumor cells. Cells can be monitored over multiple days while the real-time impedance is recorded. […]

For data set [2], the system named is HepG2, a hepatocarcinoma cell line. Nature of the data set: Impedance assay (xCELLigence, Cell Index), HepG2. It is filed as cell-based. To be noted: for effect on cell impedance: HepG2, 100 μM to 1.5 μM. The procedure:
as §1, §2, §3, §4

Data set [3] concerns the target PfAtg8 (Plasmodium falciparum, UniProt Q8IJK2). Nature of the data set: Surface plasmon resonance (SPR): direct binding of purified PfAtg8 to PTA immobilized on an SPR chip. Conditions: W-/L-site, FIG. 3, read-out: PfAtg8 Kd (binding affinity to PTA). From the text: (§5) FIGS. 2A-2C depict the properties of the PTA-binding site on hLC3. 2A) Energy-minimized docking pose of PTA to hLC3. The pyridinylthiazolamine ringsystem predominantly binds to the W-site of hLC3. 2B) Conservation of amino acids between hLC3 and Plasmodium Atg8. Shown in yellow sticks is the bound peptide of Atg3. The W-Site is highly conserved, whereas the L-site is less conserved, explaining the lower affinity of hLC3 to PTA (FIGS. 2A, 2B adapted from Hain et al. 2013). 2C) Direct binding interaction of purified hLC3 or PfAtg8 to PTA immobilized on a SPR chip to determine their respective affinities.
To maintain the identical view, residue differences were painted onto the PfAtg8 structure. Residues in the proximity of the W-/L-site of hLC3 lead to lower binding affinities of our current molecule targeting the Atg8-Atg3 interaction.
In comparing the sequence conservation of this W-/L-site between PfAtg8 and hLC3, it is apparent that the W-site has maintained a higher degree of conservation, as indicated by the magenta patch in FIG. 2B. To test whether or not the W-/L-site of Atg8 was indeed the interaction area to which our small molecules bind, we performed SPR binding studies with different Atg8-homologs, essentially mimicking mutational studies in the environment of the W-/L-site. […]

The target of data set [4] is hLC3. Kind of data set: SPR binding of purified hLC3 to PTA immobilized on an SPR chip. Details: species or system human. Conditions: read-out: affinity of hLC3 to PTA on the SPR chip.
Description: as §5
(§6) In comparing the sequence conservation of this W-/L-site between PfAtg8 and hLC3, it is apparent that the W-site has maintained a higher degree of conservation, as indicated by the magenta patch in FIG. 2B. To test whether or not the W-/L-site of Atg8 was indeed the interaction area to which our small molecules bind, we performed SPR binding studies with different Atg8-homologs, essentially mimicking mutational studies in the environment of the W-/L-site. This allowed us to explore the key features of the binding site in a manner that was much more efficient than introducing multiple single point mutations for each protein of interest at a time.
(§7) SPR studies were performed on PfAtg8 and hLC3 binding to the PTA molecule immobilized on an SPR chip. […]

Data set [5] concerns the target T1, PfAtg8 (Plasmodium falciparum, UniProt Q8IJK2).
T1 sequence (Q8IJK2 1-124): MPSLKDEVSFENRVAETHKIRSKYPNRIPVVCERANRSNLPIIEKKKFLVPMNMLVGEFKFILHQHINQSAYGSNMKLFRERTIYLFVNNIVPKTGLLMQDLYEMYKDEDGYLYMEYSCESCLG
Kind of data set: SPR binding of purified PfAtg8 to PTA immobilized on an SPR chip. To be noted: comparison of hLC3 with PfAtg8.
Description: as §5, §6, §7

The test system of data set [6] is HCT8 colon cancer cells. Nature of the data set: PTA-susceptibility of HCT8 colon cancer cells: microscopy and anti-LC3 Western blot. It is filed as cell-based, human. To be noted: 24 hours. From the text: FIG. 4 provides an anti-LC3 Western blot of PTA treated HCT8 colon cancer cells with corresponding Coomassie stained 4-20% SDS-PAGE. The arrows indicate the band used for quantification with ImageJ. The SDS gel indicates approximate equal amounts were loaded per lane.
To be functional in autophagy processes, hLC3 undergoes two critical activation processes. First a C-terminal glycine has to be exposed through proteolytic cleavage by the […] protease Atg4. Second, a lipid, phosphatidylethanolamine (PE), is conjugated to the C-terminal glycine residue resulting in hLC3-PE (hLC3-II). The inventors previously discovered 4-formyl-N-(4-pyridin-2-yl-1,3-thiazol-2-yl)benzamide (PTA) as an autophagy inhibitor in their studies on the plasmodial system in search of protein-protein interaction inhibitors of the PfAtg8-PfAtg3 interaction, the homologous system in the malaria parasite. The lipidated form of either Atg8 or hLC3 (hLC3-II) can be resolved from the unlipidated form (hLC3-I) using SDS-PAGE due to their different migration speeds. Specific commercial antibodies for hLC3 detection were used in these studies to quantify the two species via Western blot in treated and untreated cancer cell lines.
We used a DMSO-vehicle control. All experiments were carried out at 1% final DMSO concentration for 24 hours at 37° C. and 5% CO2. […] The DMSO control sample was trypsinized to detach the cells from the culture dish. All cells were collected and spun down before resuspending them in SDS-loading dye for SDS-PAGE and Western blot analysis. Commercial monoclonal antibodies directed against hLC3 (D3U4C Rabbit mAB) and GAPDH (14C10 Rabbit mAB) as loading control were used. The Western blot clearly distinguishes between the un-lipidated (hLC3-I) and lipidated (hLC3-II) form by their migration speed in the SDS-gel (FIG. 4). The lipidated form migrates faster in an SDS-gel due to its additional negative charge from the conjugated phospholipid. […] 0.5% DMSO will be used as a vehicle control and 33 nM Wortmannin as a positive control for autophagy inhibition.

The subject of data set [7] is HC-04 liver cells. Kind of data set: Cytotoxicity in HC-04 liver cells. It is filed as cell-based. To be noted: 30 μM PTA for 96 hours.
For data set [8], the system named is hLC3 with hAtg3 interaction. Nature of the data set: hLC3/hAtg3 protein-protein interaction in vitro. It is filed as binding, human. The procedure:
Our structural understanding of how the hLC3 binds the PTA-scaffold combined with surface plasmon resonance (SPR)-interaction studies, has enabled the inventors to design the PTA-analogs of the present invention with low Koff-rates. […] These new PTA-analogs are tested in SPR-based assays with purified recombinant hLC3 and hAtg3 to assess their ability to prevent the protein-protein interaction. Newly emerging molecules from our efforts are subjected to dose-dependent cell based screening with our cancer line collection.
About 120 PTA-homologs were identified in the PubChem database (pubchem.ncbi.nlm.nih.gov) that are available through commercial vendors. In a first assessment to determine which homologs to focus on initially, virtual library screening was performed with the known hLC3 structures (1UGM, 3ECI, 3WAL, 3WAO). Comparing the docking results from different structures of hLC3 allowed us to assemble a short list of nine high priority compounds (compounds 1-9). […] Two complementary assays will be utilized, the first assesses the small molecule's ability to block the protein-protein interaction of hLC3 with hAtg3. The second assay is used to directly measure the binding of the small molecule to immobilized hLC3 on an SPR chip, which will allow us to draw conclusions about the physical interaction between the two binding partners.

With `COC(OC)c1ccc(C(=O)Nc2ncc(-c3ccccn3)s2)cc1` [Compound 10], the “effect on cell impedance” value in data set [1] and in data set [2] was “concentration dependent effect” throughout.
For the molecule `O=Cc1ccc(C(=O)Nc2nc(-c3ccccn3)cs2)cc1` [PTA, 4-formyl-N-(4-pyridin-2-yl-1,3-thiazol-2-yl)benzamide], the pKd in data set [3] was 6.27; in data set [4] it was 4.74. For the same molecule, in data set [5], the “binding affinity to immobilized PTA, hLC3 versus PfAtg8” value is “decrease of binding affinity for hLC3 versus PfAtg8”. Also, the “cell appearance by microscopy at lowest concentration” value in data set [6] (HCT8, 6.75 μM PTA) is listed as “a few patches of attached cells still visible”. Also, in data set [6] (HCT8, PTA treated), the “hLC3 lipidation (hLC3-I / hLC3-II bands) in Western blot” value was “accumulation of the slower migrating hLC3-I band is visible”. For the same molecule, in data set [6] (HCT8, about 100 μM to 6.25 μM PTA, 1% DMSO), the “cell appearance by microscopy” value is listed as “detached, blebbing cells with a concentration dependent phenotype”. Also, the pIC50 in data set [1] (MCF7a, MCF-7, impedance, 100 μM to 1.5 μM, 72 hours, read-out: apparent IC50 after 72 hours of drug treatment) was roughly 4.74; in data set [2] (Homo sapiens, HepG2, impedance, 100 μM to 1.5 μM, 72 hours, read-out: apparent IC50 after 72 hours of drug treatment) it was roughly 4.74. The “effect on cell impedance” value in data set [1] and in data set [2] was “concentration dependent effect” throughout. In addition, the “cytotoxic effect / tolerability” value in data set [7] is recorded as “well tolerated”. Further, in data set [8], the “prevention of protein-protein interaction of hLC3 with hAtg3” value was “specifically prevents the protein-protein interaction of hLC3 with hAtg3”.

These data come from patent US10059702B2, “Inhibitors of LC3/ATG3 interaction and their use in the treatment of cancer” (THE JOHNS HOPKINS UNIVERSITY, priority 2014, dated 2018).
